Results taken from US20220280501A1, “USING GENO- OR P[…] ADJUST LSD DOSING” (Universitätsspital Basel, priority 2021, published 2022).
“Also recorded” adds a separate entry of the source. Where two headings read alike, the source gives them in different places.

How the values were obtained:
[1] = cited from earlier work; for duration of LSD effects (mean±SD) / duration of LSD effects (range): Dolder et al., 2017b
[2] = Pharmacokinetics of LSD by CYP genotype, pooled analysis of four phase 1 studies; conditions: for Cmax: human, oral, 100 ug, LSD Cmax, compartmental modeling, 100 μg LSD dose, mean±SD
[3] = tested on: cytochrome P450 enzymes (CYPs); conditions: human liver microsomes; cited from earlier work
[4] = human, Dolder et al., 2015; cited from earlier work
[5] = Holze et al., 2021b; cited from earlier work
[6] = cited from earlier work; for subjects with bad drug effects (50% or more on a 0-100% scale at any time point): Dolder et al., 2017a
[7] = Autonomic (physiological) effects of LSD, pooled phase 1 studies; type: in vivo, humans
Protocol: Blood pressure, heart rate, and body temperature were assessed repeatedly before and 0, 0.5, 1, 1.5, 2, 2.5, 3, 4, 5, 6, 7, 8, 9, and 10 h after LSD or placebo administration. Systolic and diastolic blood pressure and heart rate were measured using an automatic oscillometric device (OMRON Healthcare Europe NA, Hoofddorp, Netherlands). The measurements were performed in duplicate at an interval of 1 minute and after a resting time of at least 5 minutes. The averages were calculated for the analysis. Mean arterial pressure (MAP) was calculated as diastolic blood pressure+(systolic blood pressure−diastolic blood pressure)/3. The rate pressure product (RPP) was calculated as systolic blood pressure×heart rate. Core (tympanic) temperature was measured using a Genius 2 ear thermometer (Tyco Healthcare Group LP, Watertown, N.Y., USA).

[8] = tested on: cytochrome P450 enzymes (CYPs); conditions: human liver S9 fraction; cited from earlier work
[9] = Acute subjective effects of LSD (VAS, 5D-ASC) by genotype, pooled phase 1 studies; type: in vivo, humans
Protocol: The Visual Analog Scales (VASs, FIG. 14, Table S5) were presented as 100 mm horizontal lines (0-100%), marked from “not at all” on the left to “extremely” on the right. Subjective effects like “closeness”, “talkative”, “open”, “concentration”, “speed of thinking”, and “trust” were bidirectional (±50 mm). The VASs were applied before and 0, 0.5, 1, 1.5, 2, 2.5, 3, 4, 5, 6, 7, 8, 9 and 10 h after LSD or placebo administration.
The 5 Dimensions of Altered States of Consciousness (5D-ASC) scale (Dittrich, 1998; Studerus et al., 2010) was administered at the end of the acute drug effects to retrospectively rate peak drug responses. The main subscales describing alterations of consciousness are Oceanic Boundlessness (OB), Anxious of Ego Dissolution (AED), Visionary Restructuralization (VR) (FIG. 16).

[10] = non-compartmental analysis, plasma
[11] = non-functional vs functional CYP2D6

Structure (SMILES): CCN(CC)C(=O)[C@@H]1C=C2c3cccc4[nH]cc(c34)C[C@H]2N(C)C1 [LSD, Lysergic acid diethylamide]
- duration of LSD effects (mean±SD) ([1]; 100 μg): 8.2 ± 2.1 h
- duration of LSD effects (range) ([1]; 100 μg): 5 to 14 h
- duration of subjective effects (mean±SD) ([1]; 100 μg, Holze et al., 2019): 8.5 ± 2.0 h
- duration of subjective effects (range) ([1]; 100 μg, Holze et al., 2019): 5.3 to 12.8 h
- duration of LSD effects (mean±SD) ([1]; 200 μg): 11.6 ± 1.7 h
- duration of LSD effects (range) ([1]; 200 μg): 7 to 19.5 h
- effect of genetic polymorphisms of other CYPs on pharmacokinetics or subjective or autonomic effects ([2]; CYP1A2, CYP2B6, CYP2C19, CYP2C9): no relevant effect
- exposure to LSD with lower CYP2D6 activity across all CYP2D6 genotype activity score groups ([2]; CYP2D6 activity score groups): significantly higher exposure
- effect of sex or body weight on pharmacokinetics / concentration of LSD in plasma ([2]; LSD AUC∞ z-score vs body weight): no relevant effect; also recorded: did not relevantly alter
- Cmax ([2]; plasma, CYP2D6 PMs (non-functional, N=7)): 2.37 ± 0.891 ng/mL
- Cmax ([2]; plasma, functional CYP2D6 subjects (N=74)): 2.06 ± 0.999 ng/mL
- AUC∞ and AUC10 values, CYP2D6 PMs compared with functional CYP2D6 carriers [2, 10]: significantly larger
- Cmax, effect of CYP2D6 function [2, 10]: not significantly affected
- area under the curve blood plasma concentration (total drug exposure), higher in CYP2D6 poor metabolizers than in functional CYP2D6 carriers [2, 11]: approximately 75%
- half-life (T1/2), CYP2D6 PMs compared with functional CYP2D6 subjects [2, 11]: longer
- mean peak concentration, higher in CYP2D6 PMs than in functional CYP2D6 ([2]; non-functional vs functional CYP2D6, non-significant): approximately 15%
- CYPs contributing to the N-demethylation of LSD to 6-nor-LSD (Nor-LSD) [3]: CYP2D6, 3A4, and 2E1
- CYPs taking part in the formation of the main metabolite 2-oxo-3-hydroxy-LSD (O-H-LSD) [3]: CYP2C9, CYP1A2, CYP2E1, and CYP3A4
- parent drug excreted in urine [4]: ~1%
- 5D-ASC OB, AED and anxiety ratings, 200 μg compared to 100 μg [5]: did not result in higher OB ratings but increased AED and anxiety
- subjects with bad drug effects (50% or more on a 0-100% scale at any time point) ([6]; 100 μg, 3 of 24 subjects): 12.5%
- subjects with transient bad drug effects ([6]; 100 μg, 7 of 24 subjects, Holze et al., 2019a): 29%
- subjects with bad drug effects (50% or more on a 0-100% scale at any time point) ([6]; 200 μg, 9 of 16 subjects): 56%
- subjects with marked anxiety ([6]; 200 μg, sixteen healthy humans, Schmid et al., 2015): two
- vital parameters, effect of 5-HT receptor genotypes ([7]; HTR1A, HTR1B, HTR2A genotypes): not affected
- blood pressure, heart rate, and body temperature compared to placebo ([7]; healthy subjects): moderately increased
- effect of CYP2D6 genotype on the autonomic response ([7]; in vivo): no relevant effect
- CYPs contributing to the hydroxylation of LSD [8]: CYP1A2 and CYP3A4
- CYPs involved in the formation of Nor-LSD [8]: CYP2C19 and 3A4
- alterations of the mind (5D-ASC total, AED and VR subscales), CYP2D6 PMs compared with functional CYP2D6 subjects ([9]; 5D-ASC): significantly greater alterations of the mind
- 5D-ASC total score and VR subscale, homozygous carriers of HTR1A rs6295 G allele vs carriers of a C allele ([9]; HTR1A rs6295): rated lower; also recorded: lower total 5D-ASC, Visionary Restructuralization, and Blissful State ratings
- 5D-ASC total score and AED subscale, carriers of two HTR2A rs6313 A alleles vs G allele carriers ([9]; HTR2A rs6313): lower ratings; also recorded: lower alterations of the mind
- duration of the acute subjective response, CYP2D6 PMs compared with functional CYP2D6 subjects ([9]; VAS any drug effect): substantially longer duration; also recorded: longer subjective effect durations
- acute subjective effects compared to placebo ([9]; healthy subjects): significant acute subjective effects on all scales

Structure (SMILES): CCN(CC)C(=O)[C@@H]1C=C2c3cccc4c3C(O)(C[C@H]2N(C)C1)C(=O)N4 (stereo partly drawn) [O-H-LSD, 2-oxo-3-hydroxy LSD]
- AUC∞ values, CYP2D6 PMs compared with functional CYP2D6 subjects ([2]; metabolite in plasma after LSD administration): larger
- area under the curve blood plasma concentration (total drug exposure), higher in CYP2D6 poor metabolizers than in functional CYP2D6 carriers [2, 11]: approximately 75%
